# Measurements taken from PMC2852483 (Molecular cancer therapeutics, 2010).
# Numbered stars: 1 amine (or outer) side, 2 acyl side, 3 side chain; on linkers, the order of the positions; unused ones are H or OH. Square brackets hold non-standard residues; d marks the D form. Side chains are listed from the residue outwards. Peptide text beside a SMILES is read from it. * marks the point of attachment. NOTA(2S-Bn(4-NHCS)) = O=C(O)CN1CCN(CC(=O)O)C[C@H](Cc2ccc(NC(=S)*)cc2)N(CC(=O)O)CC1; NH(2-(imidazol-4-yl)ethyl) = c1ncc(CCN*)[nH]1; Suc = O=C(CCC(=O)[*:2])[*:1]
# Assays:
# [1] = set-up: species or system nude BALB/c mice; details: mouse, in vivo, 5 MBq
# [2] = test system: s.c. CEA-expressing LS174T tumor; set-up: species or system nude BALB/c mice; details: mouse
SMILES,tissue uptake [1] [%ID/g],stability in vivo [2],tumor uptake in non-pretargeted mice ([2]; in vivo) [% ID/g]
C[C@@H](NC(=S)Nc1ccc(C[C@H]2CN(CC(=O)O)CCN(CC(=O)O)CCN2CC(=O)O)cc1)C(=O)N[C@H](CCCCNC(=O)CNC(=O)CCC(=O)NCCc1c[nH]cn1)C(=O)N[C@H](Cc1ccc(O)cc1)C(=O)N[C@H](CCCCNC(=O)CNC(=O)CCC(=O)NCCc1c[nH]cn1)C(N)=O [IMP-449] ({NOTA(2S-Bn(4-NHCS))}-[dA][dK]([Gly-Suc-NH(2-(imidazol-4-yl)ethyl)])[dY][dK]([Gly-Suc-NH(2-(imidazol-4-yl)ethyl)])-NH2; N-terminus and C-terminus assumed),0.54 ± 0.2,,
C[C@@H](NC(=S)Nc1ccc(C[C@H]2CN(CC(=O)O)CCN(CC(=O)O)CCN2CC(=O)O)cc1)C(=O)N[C@H](CCCCNC(=O)CNC(=O)CCC(=O)NCCc1c[nH]cn1)C(=O)N[C@H](Cc1ccc(O)cc1)C(=O)N[C@H](CCCCNC(=O)CNC(=O)CCC(=O)NCCc1c[nH]cn1)C(N)=O [^18F-IMP-449] ({NOTA(2S-Bn(4-NHCS))}-[dA][dK]([Gly-Suc-NH(2-(imidazol-4-yl)ethyl)])[dY][dK]([Gly-Suc-NH(2-(imidazol-4-yl)ethyl)])-NH2; N-terminus and C-terminus assumed),,stable in vivo,0.45 ± 0.38
